Reference: patent US6083941A, “Inhibition of NMDA receptor activity by pregnenolone sulfate derivatives” (Trustees of Boston University, priority 1998, dated 2000)
Where “and” joins values, the source holds several entries; their conditions need not be identical. Equal entries are not always repeated. Structures can show the parent of a compound that is named as a salt.

Legend:
[1] = tested on: focal cerebral ischemia (MCA occlusion) in rats; assay: Middle cerebral artery occlusion cerebral ischemia test; type: in vivo; details: for cortical infarct volume: treatment delayed until 30 min. after initiation of ischemia
Experimental: Male Wistar rats (200-250 g) were used. Anesthesia was induced with 3% halothane in 70% nitrogen balanced with oxygen. Rats were intubated and artificially ventilated with 2% halothane in a mixture of 30% oxygen and 70% nitrogen. Body temperature was maintained at 37.5° C. during surgery by means of a warming pad with a rectal probe connected to a feedback control unit. Both common carotid arteries (CCA) were isolated, and a loose silk ligature was placed around each artery. A vertical skin incision was made between the left orbit and the auditory canal. Under constant saline irrigation the posterior part of the zygoma was removed and a small opening (2.0/2.5 mm) drilled dorso-rostrally to the foramen ovale. The dura was opened with a microsurgical hook and the brain gently retracted with a small spatula to expose the bifurcation of the internal carotid artery and middle cerebral artery. After permanent ligation of the ipsilateral CCA, the middle cerebral artery (MCA) was coagulated from its origin to the olfactory tract. The contralateral CCA was occluded for a period of 2 hours. A bolus intravenous injection (1 ml) of test compound dissolved in 5% DMSO, 10% 2-hydroxy propyl-β-cyclodextrin in 100 mM sodium phosphate buffer, pH 7.4, was given either immediately after MCA occlusion or 30 minutes after MCA occlusion. An intravenous infusion of the test drug in the same vehicle was initiated immediately after the bolus injection. Twenty-two hours after MCA occlusion rats were euthanized, and the brains were sectioned into 2 mm slices and stained with tetrazoliumred (2,3,5-triphenyl tetrazolium chloride). Areas of brain damage were assessed using an image analyzer with the NIH Image program, and the volumes of cortical and subcortical infarction were estimated by integration of areas in serial.
Pregnanolone hemisuccinate produced significant neuroprotection in the MCAO cerebral ischemia model. […] Focal cerebral ischemia was induced in the left hemisphere of male rats by proximal coagulation of the middle cerebral artery. In addition, the ipsilateral common carotid artery was permanently occluded and the contralateral common carotid artery was occluded for 2 h. Five minutes after initiation of ischemia, rats were injected with an i.v. loading dose of 6.9 mg/kg 5β3αHS, followed by i.v. infusion of 5β3αHS at 6.9 mg/kg/h. […] Control rats were treated with vehicle. Infusion of 5β3αHS was continued for an additional 20 h, at which time the rats were sacrificed, and their brains were sliced and stained with the vital stain 2,3,5 triphenyl tetrazolium Cl.

[2] = tested on: formalin pain in the mouse; assay: Formalin paw lick analgesic test; type: in vivo; details: mice, i.p., 15 mg/kg
Experimental: Male CD-1 mice (Charles River laboratories, Wilmington, Mass.) weighing 20-25 g were used for the formalin test. Mice were injected intraperitoneally with the test compound dissolved in DMSO or with vehicle. Five minutes later 20 μl of 1% formalin was injected into the hind paw of each mouse. The time spent licking the injected paw was monitored for 25 minutes. The early phase of response was between 0-5 minutes and the late phase response was defined as the response between 5-25 minutes.

kainate receptors = assay: Whole cell patch clamp, kainate-induced current in cultured chick spinal cord neurons; type: cell-based; details: 100 μM steroid; -70 mV; sulfate
Experimental: (§1) Cultures of dissociated spinal cord neurons were prepared as previously described (Farb, D. H., et al., J. Cell Biol., 80:651-661 (1979)). Briefly, the dissociated cells from 7-day chick embryos were plated on collagen-coated 35-mm tissue culture dishes in Eagle's minimum essential medium supplemented with 2.4 mM glutamine, 10% (v/v) heat-inactivated horse serum, 5% (v/v) chick embryo extract and antibiotics. Cultures were maintained in a humidified atmosphere of 5% CO2, 95% air at 37°. Cytarabine (1 μM) was added to the culture medium after 36 hr. of the initial plating to inhibit the proliferation of non-neuronal cells. One day later, this medium was replaced with a similar medium supplemented with 20.5 mM glucose, 19 mM KCl, and 2.5% chick embryo extract. Fresh medium was added twice weekly. Cultured neurons were used in experiments within 2-4 weeks after plating.
(§2) Experiments were carried out in 35-mm tissue culture dishes on the stage of an inverted phase contrast microscope. Whole cell currents were recorded by the whole cell variant of the patch clamp technique (Hamill, O. P., et al., Pfagers Arch. 891:85-100 (1981)). Patch electrodes had tip openings of about […] and resistances of 3-8 M.OMEGA. using an intracellular solution comprised of the following (in mM): 140 CsCl, 11 EGTA, and 10 HEPES (pH adjusted to 7.2 with CsOH). […]

AMPA receptors = assay: Whole cell patch clamp, AMPA-induced current in cultured chick spinal cord neurons; type: cell-based; details: 100 μM steroid; -70 mV; sulfate
Experimental: as §1, §2

NMDA receptor = details: Wu et al. 1991, cited from earlier work
[3] = i.v. 6.9 mg/kg loading dose then 6.9 mg/kg/h, started 5 min. after onset of ischemia, versus vehicle

CC(=O)[C@H]1CC[C@H]2[C@@H]3CC[C@@H]4C[C@H](OC(=O)CCC(=O)O)CC[C@]4(C)[C@H]3CC[C@]12C [5β3αHS, 3α-hydroxy-5β-pregnan-20-one hemisuccinate]
sedation ([1]; i.v. 6.9 mg/kg loading dose then 6.9 mg/kg/h): Little or no sedation
reduction in cortical infarct volume [1, 3]: 47±10%
reduction in subcortical infarct volume [1, 3]: 26±6%
cortical infarct volume [1]: significantly reduced
cortical infarct volume ([1]; listed as Pregnanolone hemisuccinate): significantly decreased
infarction volumes of the cortical and subcortical brain regions ([1]; treatment immediately after cerebral ischemia): significantly decreased
early phase response, formalin paw lick ([2]; 0-5 minutes): no effect on the early response
late phase response, formalin paw lick ([2]; 5-25 minutes): effective in blocking the late phase response

CC(=O)[C@H]1CC[C@H]2[C@@H]3CC[C@@H]4C[C@H](OS(=O)(=O)O)CC[C@]4(C)[C@H]3CC[C@]12C [5β3αS, 3α-hydroxy-5β-pregnan-20-one sulfate]
inhibition of the 50 μM kainate-induced current (kainate receptors): 37% and 37.4±4.7%
inhibition of the 25 μM AMPA-induced current (AMPA receptors): 29% and 29.0±3.1%

CC(=O)C1CCC2C3CC=C4CC(OS(=O)(=O)O)CCC4(C)C3CCC12C (stereo not drawn) [PS, pregnenolone sulfate]
potentiation of the NMDA response (NMDA receptor): 197%
EC50 (NMDA receptor; read-out: EC50 for potentiation of the NMDA response): 57 µM
